Test results: patent publication US20040102423A1, “Spironolactone and angiotensin II antagonist combination therapy for treatment of congestive heart failure” (G.D. Searle & Co., priority 1995, published 2004)
Where two headings read alike, the source gives them in different places.

Assays:
pressor response to AII = assay: Assay C: In vivo intragastric pressor assay response for AII antagonists; design: species or system Sprague-Dawley rats; conditions: in vivo pressor response; for inhibition in vivo at 10 mg/kg / inhibition in vivo at 3 mg/kg / inhibition in vivo at 30 mg/kg / inhibition in vivo at 100 mg/kg: Rattus norvegicus; for inhibition in vivo at 30 mg/kg: read-out: Assay C Inhibition
[1] = molecular target: angiotensin II AT1 receptor; assay: Assay A: Angiotensin II binding activity, rat uterine membrane preparation, 125I-AII displacement
rabbit aortic rings = assay: Assay B: In vitro vascular smooth muscle response for AII (antagonist activity, pA2); assay type: cell-based; conditions: Oryctolagus cuniculus, two values in a cell = two determinations
Outline: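 Endothelium-denuded thoracic aortic rings from male New Zealand white rabbits, in oxygenated Krebs at 37° C. under ~1 g tension, gave isometric AII contraction curves (3×10^−10 to 1×10^−5 M).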

[2] = intraduodenal, 30 mg/kg intraduodenally
[3] = intraduodenal, 100 mg/kg intraduodenally

| IC50 [1] | SMILES | Kb (rabbit aortic rings) | inhibition in vivo at 3 mg/kg (pressor response to AII; po, 3 mg/kg intragastrically) | Assay C Duration (pressor response to AII; 3 mg/kg intragastrically) | also measured |
| --- | --- | --- | --- | --- | --- |
| 25 nM | CCCCc1nc2c(O)nnc(O)c2n1Cc1ccc(-c2ccccc2C(=O)O)cc1 [Compound 120] | 0.891 nM |  |  | inhibition in vivo at 10 mg/kg (pressor response to AII; po, 10 mg/kg intragastrically): 80%; Assay C Duration (pressor response to AII; 10 mg/kg intragastrically): 240 min |
| 3.2 nM | CCCCc1nc(CCC)n(Cc2ccc(-c3ccccc3-c3nnn[nH]3)cc2)n1 [Compound 26] | 0.148 nM |  |  | inhibition in vivo at 10 mg/kg (pressor response to AII; po, 10 mg/kg intragastrically): 50%; Assay C Duration (pressor response to AII; 10 mg/kg intragastrically): >180 min |
| 54 nM | CCCCc1nc(Cl)c(Cl)n1Cc1ccc(-n2cccc2C(=O)O)cc1 [Compound 158] | 5.89 nM | 30% | >180 min |  |
| 12 nM | CCCCn1cc(C2CCCCC2)n(Cc2ccc(-c3ccccc3-c3nnn[nH]3)nc2)c1=O [Compound 202] | 1.62 nM | 65% | >180 min |  |
| 5 nM | CCCCc1cn(CCC(C)C)c(=O)n1Cc1ccc(-c2ccccc2-c2nnn[nH]2)nc1 [Compound 209] | 0.389 nM | 25% | >180 min |  |
| 6.3 nM | CCCCc1nc(-c2ccccc2C(C)C)n(Cc2ccc(-c3ccccc3-c3nnn[nH]3)nc2)n1 [Compound 275] | 0.851 nM | 40% | >180 min |  |
| 78000 nM | CCCCc1nc(Cl)n(Cc2ccc(-c3ccccc3-c3nnn[nH]3)cc2)n1 [Compound 20] | 1290 nM |  |  | inhibition in vivo at 100 mg/kg (pressor response to AII; [3]): 10%; Assay C Duration (pressor response to AII; 100 mg/kg intraduodenally): 45 min |
| 6.5 nM | CCCn1nc(C(OC)OC)nc1Cc1ccc(-c2ccccc2-c2nnn[nH]2)nc1 [Compound 185] | 1.51 nM | 50% | >180 min |  |
| 3.6 nM | CCCCCn1cc(CCCC)n(Cc2ccc(-c3ccccc3-c3nnn[nH]3)nc2)c1=O [Compound 210] | 4.37 nM | 15% | 180 min |  |
| 9.2 nM | CCCCn1cc(C2CCCC2)n(Cc2ccc(-c3ccccc3-c3nnn[nH]3)nc2)c1=O [Compound 203] | 3.72 nM | 50% | >180 min |  |
| 12 nM | CCCCc1nc(CCCC)n(Cc2ccc(-c3cnccc3-c3nnn[nH]3)cc2)n1 [Compound 255] | 24.5 nM | 20% | >180 min |  |
| 250 nM | CCCCc1nn(CC(O)c2cc(OC)ccc2OC)c(=O)n1Cc1ccc(-c2ccccc2-c2nn[nH]n2)cc1 (stereo not drawn) [Compound 109] | 50.1 nM |  |  | inhibition in vivo at 30 mg/kg (pressor response to AII; [2]): 50%; Assay C Duration (pressor response to AII; 30 mg/kg intraduodenally): 30 min |
| 5.4 nM | CCCCc1cn(C2CCCCC2)c(=O)n1Cc1ccc(-c2ccccc2-c2nnn[nH]2)nc1 [Compound 216] | 1.58 nM | 50% | >180 min |  |
| 150 nM | CCCCc1nc(CCCC)n(Cc2ccc(-n3c(Br)ccc3-c3nnn[nH]3)cc2)n1 [Compound 152] | 34.7 nM | 10% | 140 min |  |
| 11 nM | CCCCc1nn(CC2CC2)c(=O)n1Cc1ccc(-c2ccccc2-c2nn[nH]n2)cc1 [Compound 115] | 6.31 nM | 40% | >240 min |  |
| 16 nM | CCCCc1nc2cnncc2n1Cc1ccc(-c2ccccc2C(=O)O)cc1 [Compound 119] | 0.617 nM | 20% | 60 min |  |
| 17 nM | CCCCCc1cn(CCCC)c(=O)n1Cc1ccc(-c2ccccc2-c2nnn[nH]2)nc1 [Compound 201] | 1.66 nM | 10% | 180 min |  |
| 10 nM | CCCCn1nc(C=O)nc1Cc1ccc(-c2ccccc2-c2nnn[nH]2)nc1 [Compound 190] | 13.5 nM | 10% | 180 min |  |

| IC50 [1] | SMILES | Kb (rabbit aortic rings) | inhibition in vivo at 3 mg/kg (pressor response to AII; po, 3 mg/kg intragastrically) | Assay C Duration (pressor response to AII; 3 mg/kg intragastrically) | also measured |
| --- | --- | --- | --- | --- | --- |
| 13 nM | CCCCc1nc(-c2ccccc2C(C)C)nn1Cc1ccc(-c2ccccc2-c2nnn[nH]2)nc1 [Compound 274] | 0.871 nM | 35% | >180 min |  |
| 9.8 nM | CCCCc1nc(-c2ccccc2C)n(Cc2ccc(-c3ccccc3-c3nnn[nH]3)nc2)n1 [Compound 273] | 2.95 nM | 25% | >180 min |  |
| 5.4 nM | CCCCc1cn(CC)c(=O)n1Cc1ccc(-c2ccccc2-c2nnn[nH]2)nc1 [Compound 206] | 1.78 nM | 30% | >180 min |  |
| 720 nM | CCCCc1nn(CC(OCc2ccccc2)c2ccccc2)c(=O)n1Cc1ccc(-c2ccccc2-c2nn[nH]n2)cc1 (stereo not drawn) [Compound 108] | 5010 nM |  |  | inhibition in vivo at 100 mg/kg (pressor response to AII; [3]): 45%; Assay C Duration (pressor response to AII; 100 mg/kg intraduodenally): 90 min |
| 45 nM | CCCCc1nn(CCCCC(=O)OC)c(=O)n1Cc1ccc(-c2ccccc2-c2nn[nH]n2)cc1 [Compound 111] | 1 nM |  |  | inhibition in vivo at 30 mg/kg (pressor response to AII; [2]): 87%; Assay C Duration (pressor response to AII; 30 mg/kg intraduodenally): 160 min |
| 81 nM | CCCCn1nc(C2OCCCO2)nc1Cc1ccc(-c2ccccc2-c2nnn[nH]2)nc1 [Compound 191] | 17.8 nM | 10% | 180 min |  |
| 9.8 nM | CCCn1nc(C(C)(F)F)nc1Cc1ccc(-c2ccccc2-c2nnn[nH]2)nc1 [Compound 176] | 20.4 nM | 10% | 150 min |  |
| 20 nM | CCCCc1cn(C)c(=O)n1Cc1ccc(-c2ccccc2-c2nnn[nH]2)nc1 [Compound 205] | 0.724 nM | 40% | >180 min |  |
| 7.6 nM | CCCn1cc(CC(C)C)n(Cc2ccc(-c3ccccc3-c3nnn[nH]3)nc2)c1=O [Compound 198] | 1.74 nM | 35% | >180 min |  |
| 22 nM | CCCCc1ncn(Cc2ccc(-c3ccccc3C(=O)O)cc2)n1 [Compound 30] | 18.6 nM |  |  | inhibition in vivo at 30 mg/kg (pressor response to AII; [2]): 50%; Assay C Duration (pressor response to AII; 30 mg/kg intraduodenally): >180 min |
| 5.8 nM | CCCCc1cn(C2CCCCC2)c(=O)n1Cc1ccc(-c2ccccc2-c2nnn[nH]2)cc1 [Compound 147] | 2510 nM |  |  | inhibition in vivo at 3 mg/kg (pressor response to AII; intraduodenal, 3 mg/kg intraduodenally): 74%; Assay C Duration (pressor response to AII; 3 mg/kg intraduodenally): 5 to 10 min |
| 18 nM | CCCCc1cn(C(C)C)c(=O)n1Cc1ccc(-c2ccccc2-c2nnn[nH]2)nc1 [Compound 211] | 1.82 nM | 35% | >180 min |  |
| 20 nM | CCCCc1cn(C2CCCCC2(C)C)c(=O)n1Cc1ccc(-c2ccccc2-c2nnn[nH]2)nc1 (stereo not drawn) [Compound 248] | 20.9 nM | 10% |  |  |
| 33 nM | CCCCc1nc(-c2ccccc2OC)nn1Cc1ccc(-c2ccccc2-c2nnn[nH]2)nc1 [Compound 276] | 1.95 nM | < 20% |  |  |
| 30 nM | CCCCc1nc(-c2ccccc2Cl)nn1Cc1ccc(-c2ccccc2-c2nnn[nH]2)nc1 [Compound 278] | 3.24 nM | 50% | >180 min |  |
| 150 nM | CCCCn1nc(-c2ccccc2Cl)nc1Cc1ccc(-c2ccccc2-c2nnn[nH]2)nc1 [Compound 169] | 16.6 nM | 15% | 180 min |  |
| 9.4 nM | CCCCc1cn([C@H]2[C@H](C)CCC[C@@H]2C)c(=O)n1Cc1ccc(-c2ccccc2-c2nnn[nH]2)nc1 [Compound 247] | 5.5 nM | 20% | 180 min |  |
| 12 nM | CCCCc1nn(C(C)(C)C(=O)c2ccccc2)c(=O)n1Cc1ccc(-c2ccccc2-c2nn[nH]n2)cc1 [Compound 113] | 3.98 nM |  |  | inhibition in vivo at 10 mg/kg (pressor response to AII; po, 10 mg/kg intragastrically): 60%; Assay C Duration (pressor response to AII; 10 mg/kg intragastrically): 180 min |

| SMILES | IC50 [1] | Kb (rabbit aortic rings) | inhibition in vivo at 3 mg/kg (pressor response to AII; po, 3 mg/kg intragastrically) | Assay C Duration (pressor response to AII; 3 mg/kg intragastrically) | also measured |
| --- | --- | --- | --- | --- | --- |
| COC(=O)CC[C@]1(O)CC[C@H]2[C@@H]3C4CC4C4=CC(=O)CC[C@]4(C)[C@]34OC4C[C@@]21C (stereo partly drawn) [Compound 7] | 84 nM | 9.77 nM |  |  | inhibition in vivo at 30 mg/kg (pressor response to AII; [2]): 90%; Assay C Duration (pressor response to AII; 30 mg/kg intraduodenally): 130 min |
| COC(=O)CC[C@]1(O)CC[C@H]2[C@@H]3[C@H](C(=O)OC)CC4=CC(=O)CC[C@]4(C)C34O[C@@H]4C[C@@]21C (stereo partly drawn) [Compound 2] | 95 nM | 42.7 nM |  |  | inhibition in vivo at 10 mg/kg (pressor response to AII; intraduodenal, 10 mg/kg intraduodenally): 95%; inhibition in vivo at 30 mg/kg (pressor response to AII; [2]): 98%; Assay C Duration (pressor response to AII; 10 mg/kg intraduodenally): 60 min; Assay C Duration (pressor response to AII; 30 mg/kg intraduodenally): 90 to 120 min |
| C[C@]12C=CC(=O)C=C1[C@@H]1CC1[C@H]1[C@@H]3CC[C@@]4(CCC(=O)O4)[C@@]3(C)CC3O[C@]312 (stereo partly drawn) [Compound 6] | 1300 nM | 282 nM |  |  | inhibition in vivo at 100 mg/kg (pressor response to AII; [3]): 90%; Assay C Duration (pressor response to AII; 100 mg/kg intraduodenally): 120 min |
| C[C@]12CCC(=O)C=C1[C@@H]1CC1[C@H]1[C@@H]3CC[C@@]4(CCC(=O)O4)[C@@]3(C)CC3O[C@]312 (stereo partly drawn) [Compound 3] | 5.4 nM | 2 nM |  |  | inhibition in vivo at 10 mg/kg (pressor response to AII; po, 10 mg/kg intragastrically): 50%; inhibition in vivo at 30 mg/kg (pressor response to AII; po, 30 mg/kg intragastrically): 100%; Assay C Duration (pressor response to AII; 10 mg/kg intragastrically): >180 min; Assay C Duration (pressor response to AII; 30 mg/kg intragastrically): 200^+ min. |
